Source: US20220105192A1, “COMPOSITION, METHOD AND USE THEREOF” (RYBOQUIN COMPANY LTD, priority 2019, published 2022)

What was measured:
Kelly cells = experiment: SubG1 analysis (apoptosis) of transfected Kelly cells after 4 Gy irradiation; type: cell-based; conditions: 4 Gy irradiation three days after transfection, analysed one day after irradiation
Description: SubG1 analysis: to examine the effects of ITCH silencing on the apoptosis of neuroblastoma cells upon irradiation, Kelly cells were firstly transfected with ITCH siRNA as described above, using irrelevant siRNA as control. Cells were exposed to 4 Gy irradiation three days after transfection. 24 hours after irradiation, cells were trypsinized and centrifuged at 2000 rpm, for 5 min. Pre-cold 70% ethanol was then added dropwise to cell pellet, and the cells were fixed at 4° C. for 30 min before centrifuge again and the cell pellet washed with citric buffer twice before adding 50 μl RNase followed by 50 μg/ml PI (propidium iodide) for 5 min. The cells were then pelleted again at 2000 rpm for 5 min, and re-suspended in 0.5 ml PBS for FACS (fluorescent associated cell sorting) analysis. The cell cycle profile was acquired using FACS calibur machine and the percentage of cells in the SubG1 region was calculated using Flowjo software.
Kelly cells were transfected with ITCH and irrelevant siRNA, respectively. Three days later, cells were subjected to 4 Gy irradiation. The subG1 population was analysed one day after the irradiation. […] This difference was statistically significant between the 2 groups (p<0.001, Mann-Whitney test).

ITCH mRNA [1] = experiment: ITCH mRNA knockdown by qPCR after LipofectAMINE 2000 transfection, Kelly cells; type: cell-based
Description: (§1) Transfection with LipofectAMINE 2000: one day before transfection, cells were plated at 8×10^4 cells per well for 24-well plate or 1.5×10^5 cells per well for 6-well plate in culture medium. On the day of transfection, LipofectAMINE 2000 (Thermal Fisher) or ITCH/Irrelevant siRNA (Eurogentec) was pre-diluted in OptiMEM (Thermal Fisher) with various concentrations and mixed to form complexes at room temperature (RT) for 25 min before adding to cells. mRNAs or protein lysates were collected 72 hours after transfection for further analysis.
(§2) Real-time PCR: cDNA from each mRNA sample was synthesized using superscript III first strand synthesis kit (Thermal Fisher). To determine the ITCH expression, real time PCR was performed using SYBR-green qPCR kit (Eurogentec), using beta-actin or SDHA (sequence details as above) as endogenous control. The qPCR was run using either StepOne plus qPCR machine (Thermal Fisher) or CFX96 qPCR system (Bio-Rad). Results were analysed using their corresponding software.
(§3) To determine ITCH silencing in neuroblastoma cells in vitro, neuroblastoma cells were transfected with ITCH siRNA, using LipofectAMINE 2000 as the transfection reagent. Cells were transfected with either, a) ITCH siRNA (6.25 nM to 100 nM) using 2 μl/well LipofectAMINE 2000 or b) Different amounts of LipofectAMINE2000 (0.5 μl/well, 1 μl/well and 2 μl/well) with 100 nM ITCH siRNA for 4 hours in OptiMEM, and then change into complete medium for a further 72 hours.
(§4) The ITCH mRNA levels were determined by qPCR, and cells transfected with irrelevant siRNA were used as the control.

ITCH mRNA [2] = experiment: ITCH mRNA knockdown by qPCR after LipofectAMINE 2000 transfection, BE2 cells; type: cell-based
Description: as §1, §2, §3, §4

ITCH mRNA [3] = experiment: In vivo silencing of ITCH in neuroblastoma (Kelly) xenograft tumours, real time RT-PCR; parameters: species or system mouse; conditions: for Differences in % (ITCH SiRNA vs Irre SiRNA), relative ITCH expression <0.8 / Differences in % (ITCH SiRNA vs Irre SiRNA), relative ITCH expression <1 / % of samples with relative ITCH expression <0.8 / % of samples with relative ITCH expression <1 / Number of samples with relative ITCH expression <0.8 / Number of samples with relative ITCH expression <1: 24 h after injection; for % of samples with relative ITCH expression <0.8 / % of samples with relative ITCH expression <1 / Number of samples with relative ITCH expression <0.8 / Number of samples with relative ITCH expression <1: n number 24; for more samples expressing lower level of ITCH (relative expression <0.8) in treated group than in control group: 48 h after delivery; for ITCH silencing: 48 hours after delivery, vs irrelevant siRNA group; for Relative expression of ITCH/SDHA (mean ± SEM) / Relative expression of ITCH/β-actin (mean ± SEM): xenograft tumours
Description: Establishment of the xenograft neuroblastoma model and in vivo transfection of ITCH siRNA with nanoparticles: 6-8 week old NSG-SCID female mice were ordered from Charles River laboratories. All procedures were approved by UCL animal care policies and were carried out under Home Office Licenses issued in accordance with the United Kingdom Animals (Scientific Procedures) Act 1986 (UK). The mice were acclimatized for 1-2 weeks before engrafting the neuroblastoma cells. On the day of injection, Kelly cells were trypsinized and re-suspended in medium at a density of 3×10^6 cells/100 μl. 100 μl cell suspension was mixed with equal volume of Matrigel (BD biosciences) on ice and immediately injected subcutaneously into the left or right upper thigh of the mouse. The body weight and the tumour size/volume of each mouse were monitored from D4 after engraftment. The in vivo administration of the ITCH siRNA nanoparticles was performed on mouse once its tumour grew bigger than 5mm at both dimensions. The nanoparticle formulation for in vivo study was also prepared at the 1:4:1 ratio, using cationic lipid AT-1, which contains 1% PEG and the peptide used was ME27. 1 mg siRNA/kg of nanoparticles was injected intravenously into each mouse. The tumour was harvested either 24 hours or 48 hours after administration, and processed for qPCR analysis.
Real time RT-PCR analysis of tumour samples: each tumour was divided into 4 parts and mRNA was extracted respectively for real time RT-PCR analysis. iTaq Universal SYBR Green One-Step Kit was used in this assay. For normalization, 2 separate housekeeping genes, beta-actin and SDHA (Fisher M, 2005) were included. As there were in total 104 samples to test, it was not possible to fit all samples in a single 96 well testing plate. Therefore, sample 05 c was chosen, from an untreated tumour sample as a common control. This sample was included in every plate that was run and all the data from each plate were calculated relative to this sample (the ddCT value of each sample was calculated by subtracting the deICT value of sample 05 c).

Itch protein [4] = experiment: Western blot of Itch protein after siRNA transfection, Kelly cells; type: cell-based
Description: as §1
[…] 100 μl of lysis buffer was added to each well of the 6-well plate, and left on ice for 10 minutes. Samples were collected and boiled for 3 minutes and then centrifuged at 14,000 g for 10 minutes at 4° C. The supernatants were stored at −80° C. until needed. 30 μl/well of each sample were loaded onto NuPAGE Novex 10% bis-Tris Gel, and run at a constant voltage of 150V for 1 hour, before being transferred to a nitrocellulose membrane at 300 mA for 2 hours. The membrane was then blocked with Odyssey block solution (LI-COR Biosciences) for 60 min, incubated by primary antibodies of mouse anti-ITCH antibody (1:2000, BD) or rabbit anti-TP73 (1:1000, Generon), and mouse anti-beta actin (1:5000, Sigma) overnight at 4° C. […]

Itch protein [5] = experiment: Western blot of Itch protein after siRNA transfection, BE2 cells; type: cell-based; conditions: 72 hours after transfection, in comparison to irrelevant siRNA treated cells
Description: as §1
Western blot: 72 hours after transfection, protein was extracted in RIPA (Radio-Immunoprecipitation Assay) lysis buffer (Sigma) containing a complete protease inhibitor cocktail (1:100, Roche). 100 μl of lysis buffer was added to each well of the 6-well plate, and left on ice for 10 minutes. Samples were collected and boiled for 3 minutes and then centrifuged at 14,000 g for 10 minutes at 4° C. The supernatants were stored at −80° C. until needed. 30 μl/well of each sample were loaded onto NuPAGE Novex 10% bis-Tris Gel, and run at a constant voltage of 150V for 1 hour, before being transferred to a nitrocellulose membrane at 300 mA for 2 hours. […]

TP73 = experiment: Western blot of TP73 after ITCH siRNA transfection, Kelly cells; type: cell-based; conditions: LipofectAMINE2000, samples at 1, 2, 3, 6 days and D6+3, western blot normalized to β-actin
Description: […] 100 μl of lysis buffer was added to each well of the 6-well plate, and left on ice for 10 minutes. Samples were collected and boiled for 3 minutes and then centrifuged at 14,000 g for 10 minutes at 4° C. The supernatants were stored at −80° C. until needed. 30 μl/well of each sample were loaded onto NuPAGE Novex 10% bis-Tris Gel, and run at a constant voltage of 150V for 1 hour, before being transferred to a nitrocellulose membrane at 300 mA for 2 hours. The membrane was then blocked with Odyssey block solution (LI-COR Biosciences) for 60 min, incubated by primary antibodies of mouse anti-ITCH antibody (1:2000, BD) or rabbit anti-TP73 (1:1000, Generon), and mouse anti-beta actin (1:5000, Sigma) overnight at 4° C. After washing with PBS (phosphate-buffered saline) containing 1% Tween 20 (PBST) for 15 min×3 times at room temperature, the membrane was then incubated with IRDye 680 RD goat anti-rabbit and IRDye 800 CW goat anti-mouse 2nd antibodies (1:15000, LI-COR Biosciences) for 1 hour at RT. The image of the blotted membrane was acquired by Odyssey Clx infrared imaging system (LI-COR Biosciences) using image studio software.
Kelly cells were transfected with ITCH siRNA or irrelevant siRNA in 6-well plates using LipofectAMINE2000. The protein samples were collected 1 day, 2 days, 3 days and 6 days after transfection. […]

[6] = 6.25 nM siRNA, 2 μl/well LipofectAMINE 2000, qPCR, control irrelevant siRNA
[7] = 12.5 nM siRNA, 2 μl/well LipofectAMINE 2000, qPCR, control irrelevant siRNA
[8] = 25 nM siRNA, 2 μl/well LipofectAMINE 2000, qPCR, control irrelevant siRNA
[9] = 50 nM siRNA, 2 μl/well LipofectAMINE 2000, qPCR, control irrelevant siRNA
[10] = 100 nM siRNA, 2 μl/well LipofectAMINE 2000, qPCR, control irrelevant siRNA
[11] = 24 hours after i.v. 1 mg siRNA/kg nanoparticles (AT-1, ME27)
[12] = 48 hours after i.v. 1 mg siRNA/kg nanoparticles (AT-1, ME27)

Substance: ITCH siRNA: siRNA, sense strand 5′-GCUGUUGUUUGCCAUAGAA55-3′ (SEQ ID NO 003), antisense strand 5′-UUCUAUGGCAAACAACAGC55-3′ (SEQ ID NO 004) (Eurogentec) (listed as RNA, chemistry not given here)
- percentage of SubG1 (apoptotic) cells (Kelly cells): 8.36%
- ITCH knockdown (ITCH mRNA [1]; [6]): 64.7%
- ITCH knockdown (ITCH mRNA [1]; [7]): 77.8%
- ITCH knockdown (ITCH mRNA [1]; [8]): 73.5%
- ITCH knockdown (ITCH mRNA [1]; [9]): 89%
- ITCH knockdown (ITCH mRNA [1]; 100nM SiRNA, 0.5 μl/well LipofectAMINE 2000): 85%
- ITCH knockdown (ITCH mRNA [1]; 100nM SiRNA, 1 μl/well LipofectAMINE 2000): 83%
- ITCH knockdown (ITCH mRNA [1]; 100nM SiRNA, 2 μl/well LipofectAMINE 2000 (LipofectAMINE amount series)): 78.8%
- ITCH knockdown (ITCH mRNA [1]; [10]): 78%
- ITCH knockdown (ITCH mRNA [2]; [6]): -39%
- ITCH knockdown (ITCH mRNA [2]; [7]): 54%
- ITCH knockdown (ITCH mRNA [2]; [8]): 48.7%
- ITCH knockdown (ITCH mRNA [2]; [9]): 71.8%
- ITCH knockdown (ITCH mRNA [2]; 100 nM siRNA, 0.5 μl/well LipofectAMINE 2000): 88.7%
- ITCH knockdown (ITCH mRNA [2]; 100 nM siRNA, 1 μl/well LipofectAMINE 2000): 49%
- ITCH knockdown (ITCH mRNA [2]; 100 nM siRNA, 2 μl/well LipofectAMINE 2000 (LipofectAMINE amount series)): 34%
- ITCH knockdown (ITCH mRNA [2]; [10]): 38.2%
- Differences in % (ITCH SiRNA vs Irre SiRNA), relative ITCH expression <0.8 (ITCH mRNA [3]; normalized to SDHA): 12.5%
- Differences in % (ITCH SiRNA vs Irre SiRNA), relative ITCH expression <1 (ITCH mRNA [3]; normalized to SDHA): 4.17%
- % of samples with relative ITCH expression <0.8 (ITCH mRNA [3]; normalized to SDHA): 25%
- % of samples with relative ITCH expression <1 (ITCH mRNA [3]; normalized to SDHA): 41.67%
- Number of samples with relative ITCH expression <0.8 (ITCH mRNA [3]; normalized to SDHA): 6
- Number of samples with relative ITCH expression <1 (ITCH mRNA [3]; normalized to SDHA): 10
- Differences in % (ITCH SiRNA vs Irre SiRNA), relative ITCH expression <0.8 (ITCH mRNA [3]; normalized to β-actin): −16.67%
- Differences in % (ITCH SiRNA vs Irre SiRNA), relative ITCH expression <1 (ITCH mRNA [3]; normalized to β-actin): 8.33%
- % of samples with relative ITCH expression <0.8 (ITCH mRNA [3]; normalized to β-actin): 16.67%
- % of samples with relative ITCH expression <1 (ITCH mRNA [3]; normalized to β-actin): 45.83%
- Number of samples with relative ITCH expression <0.8 (ITCH mRNA [3]; normalized to β-actin): 4
- Number of samples with relative ITCH expression <1 (ITCH mRNA [3]; normalized to β-actin): 11
- more samples expressing lower level of ITCH (relative expression <0.8) in treated group than in control group (ITCH mRNA [3]; normalized to SDHA): 35%
- more samples expressing lower level of ITCH (relative expression <0.8) in treated group than in control group (ITCH mRNA [3]; normalized to β-actin): 27.14%
- ITCH silencing (ITCH mRNA [3]; normalized to SDHA): 14.6%
- ITCH silencing (ITCH mRNA [3]; normalized to β-actin): 19.15%
- ITCH silencing (summary) (ITCH mRNA [3]; neuroblastoma xenograft model, nanoparticles, 48 hours after transfection): 15-20%
- Relative expression of ITCH/SDHA (mean ± SEM) (ITCH mRNA [3]; [11]): 1.18 ± 0.10
- Relative expression of ITCH/β-actin (mean ± SEM) (ITCH mRNA [3]; [11]): 1.05 ± 0.06
- Relative expression of ITCH/SDHA (mean ± SEM) (ITCH mRNA [3]; [12]): 0.82 ± 0.05
- Relative expression of ITCH/β-actin (mean ± SEM) (ITCH mRNA [3]; [12]): 0.76 ± 0.05
- remaining Itch protein level (Itch protein [4]; 72 hours after transfection, western blot, in comparison to non-transfected cells): 31.6%
- Itch protein level, time course (Itch protein [4]; LipofectAMINE2000, 1 day to 6 days after the 1st transfection, vs irrelevant siRNA, normalized to β-actin): downregulation of Itch protein was observed
- changes in Itch protein level (Itch protein [5]): no changes
- TP73 protein level, time course (TP73): upregulation was only detected at day 3 samples and day 6 samples which had been transfected twice
